{
  "source": "paper PMC11816618",
  "about": "“Pharmacokinetic profile and in vivo anticancer efficacy of anagrelide administered subcutaneously in rodents” (Drug Delivery, 2025)",
  "key": {"[1]": {"assay": "Long-term plasma exposure after a single SC ANA dose (56-day follow-up), plasma LC-MS/MS", "assay_type": "in vivo, Sprague-Dawley rats", "details": "male SD rats, n = 5, 56-day follow-up", "method": "To monitor the sustained release of SC ANA in the long term, 10 male SD rats were treated with a single dose of either 7.0 mg/kg (n = 5) or 35.0 mg/kg (n = 5). The rats were purchased from SPF Biotechnology Co. Ltd. (Beijing, China). Animals were acclimated to the test facility for at least three days, during which their general health was checked by veterinary staff or other authorized personnel. Animals were kept in polycarbonate cages containing absorbent corncob bedding, with a maintained temperature range of +20-25 °C and a 12-h light/dark cycle. Animals had access to food and drinking water ad libitum during acclimation and the experiment. At the end of the study, the rats were euthanized by exposure to an increasing concentration of CO2. […] The SC formulation was prepared by dissolving micronized ANA (5 μm particle size) in an oily triglyceride ester of saturated caprylic and capric fatty acids and glycerol (Miglyol® 810 N, IOI Oleo GmbH, Hamburg, Germany). […] To evaluate plasma concentration-time profiles, blood samples were collected from the jugular vein in EDTA tubes and stored at -70 °C until further analysis. […] In the second PK analysis in rats with a longer follow-up time, blood samples were collected at 0, 30 min, 1 […], and 56 d after dosage. SD rat plasma was analyzed for ANA, 3-OH-ANA, and RL603 concentrations by Pharmaron (Beijing, China). ANA, 3-hydroxy-anagrelide (CAS No. 733043-41-9, Cat. No. sc-206647, Santa Cruz Biotechnology, Inc., Dallas, TX), and RL603 (CAS No. 327602-34-6, Cat. No. sc-391661, Santa Cruz Biotechnology, Inc., Dallas, TX) were used as reference items in calibration standards and quality control (QC) samples. The HPLC and the MS/MS (LCMS-8060) instruments were both from SHIMADZU (Kyoto, Japan), and the column used was a Raptor Biphenyl column (2.7 μm, 50 × 2.1 mm, Restek, Bellefonte, PA). The desired serial concentrations of working solutions were achieved by diluting analyte stock solution with 50% acetonitrile in water. […] QC samples at 0.5, 1, 2, 50, and 800 ng/mL were prepared independently of those used for the calibration curves. These QC samples were prepared on the day of analysis in the same way as calibration standards. Carbamazepine (CAS No. 298-46-4, Sigma-Aldrich, St. Louis, MO) was used as an internal standard for all analytes. Altogether, 55 μL of standards, 55 μL of QC samples, and 55 μL of test samples (comprising 50 μL of plasma and 5 μL of blank solution) were added to 200 μL of acetonitrile containing an internal standard mixture to precipitate protein. The samples were then vortexed for 30 seconds. After centrifugation at 4000 × g (+4 °C) for 5 min, the supernatant was diluted threefold with water, and 2 μL of the diluted supernatant was injected into the LC/MS/MS system for quantitative analysis. The transitions were 256.00-198.90 m/z for anagrelide hydrochloride, 272.00-198.95 m/z for 3-hydroxy anagrelide, 216.00-198.95 m/z for RL603, and 237.20-194.10 m/z for carbamazepine. […] Plasma drug concentration-time profiles were drawn by the average plasma concentrations at specific time points using Microsoft Excel (Redmond, WA). […] Certara, Princeton, NJ) software. Averages of each variable were used when PK values were compared."}, "[2]": {"assay": "PK comparison between three administration routes (IV, PO, SC), plasma LC-MS/MS", "assay_type": "in vivo, Sprague-Dawley rats", "details": "for Tmax: male, plasma, read-out: Tmax", "method": "The rats were purchased from SPF Biotechnology Co. Ltd. (Beijing, China). Animals were acclimated to the test facility for at least three days, during which their general health was checked by veterinary staff or other authorized personnel. Animals were kept in polycarbonate cages containing absorbent corncob bedding, with a maintained temperature range of +20-25 °C and a 12-h light/dark cycle. Animals had access to food and drinking water ad libitum during acclimation and the experiment. At the end of the study, the rats were euthanized by exposure to an increasing concentration of CO2. […] The SC formulation was prepared by dissolving micronized ANA (5 μm particle size) in an oily triglyceride ester of saturated caprylic and capric fatty acids and glycerol (Miglyol® 810 N, IOI Oleo GmbH, Hamburg, Germany). […] To evaluate plasma concentration-time profiles, blood samples were collected from the jugular vein in EDTA tubes and stored at -70 °C until further analysis. […] In the second PK analysis in rats with a longer follow-up time, blood samples were collected at 0, 30 min, 1 […], and 56 d after dosage. SD rat plasma was analyzed for ANA, 3-OH-ANA, and RL603 concentrations by Pharmaron (Beijing, China). ANA, 3-hydroxy-anagrelide (CAS No. 733043-41-9, Cat. No. sc-206647, Santa Cruz Biotechnology, Inc., Dallas, TX), and RL603 (CAS No. 327602-34-6, Cat. No. sc-391661, Santa Cruz Biotechnology, Inc., Dallas, TX) were used as reference items in calibration standards and quality control (QC) samples. The HPLC and the MS/MS (LCMS-8060) instruments were both from SHIMADZU (Kyoto, Japan), and the column used was a Raptor Biphenyl column (2.7 μm, 50 × 2.1 mm, Restek, Bellefonte, PA). The desired serial concentrations of working solutions were achieved by diluting analyte stock solution with 50% acetonitrile in water. […] These QC samples were prepared on the day of analysis in the same way as calibration standards. Carbamazepine (CAS No. 298-46-4, Sigma-Aldrich, St. Louis, MO) was used as an internal standard for all analytes. Altogether, 55 μL of standards, 55 μL of QC samples, and 55 μL of test samples (comprising 50 μL of plasma and 5 μL of blank solution) were added to 200 μL of acetonitrile containing an internal standard mixture to precipitate protein. The samples were then vortexed for 30 seconds. After centrifugation at 4000 × g (+4 °C) for 5 min, the supernatant was diluted threefold with water, and 2 μL of the diluted supernatant was injected into the LC/MS/MS system for quantitative analysis. The transitions were 256.00-198.90 m/z for anagrelide hydrochloride, 272.00-198.95 m/z for 3-hydroxy anagrelide, 216.00-198.95 m/z for RL603, and 237.20-194.10 m/z for carbamazepine. […] Plasma drug concentration-time profiles were drawn by the average plasma concentrations at specific time points using Microsoft Excel (Redmond, WA). […] Certara, Princeton, NJ) software. Averages of each variable were used when PK values were compared."}, "[3]": {"details": "analyte in plasma after single SC ANA dose 7 mg/kg"}, "[4]": {"details": "analyte in plasma after single SC ANA dose 35 mg/kg"}, "[5]": {"details": "Sprague-Dawley, rat, analyte in plasma after single ANA dose 0.5 mg/kg IV, male SD rats, n = 3, mean ± SD"}, "[6]": {"details": "Sprague-Dawley, rat, analyte in plasma after single ANA dose 2.5 mg/kg PO, male SD rats, n = 3, mean ± SD"}, "[7]": {"details": "Sprague-Dawley, rat, analyte in plasma after single SC ANA dose 7 mg/kg"}, "[8]": {"details": "Sprague-Dawley, rat, analyte in plasma after single SC ANA dose 35 mg/kg"}},
  "data": [
    {"smiles": "O=C1NC2=Nc3ccc(Cl)c(Cl)c3CN2C1O", "note": "(centres unmarked) [3-Hydroxy-anagrelide, 3′-hydroxy-anagrelide]", "values": [
      {"measurement": "AUCinf", "setting": "[1]; [3]", "value": "699.77 ± 705.45", "unit": "ng·h/mL"},
      {"measurement": "AUClast", "setting": "[1]; [3]", "value": "86.57 ± 60.96", "unit": "ng·h/mL"},
      {"measurement": "Cmax", "setting": "[1]; [3]", "value": "0.46 ± 0.09", "unit": "ng/mL"},
      {"measurement": "T1/2", "setting": "[1]; [3]", "value": "1099 ± 945.8", "unit": "h"},
      {"measurement": "Tmax", "setting": "[1]; [3]", "value": "19.00 ± 35.34", "unit": "h"},
      {"measurement": "AUCinf", "setting": "[1]; [4]", "value": "2492.52 ± 2459.44", "unit": "ng·h/mL"},
      {"measurement": "AUClast", "setting": "[1]; [4]", "value": "563.51 ± 106.90", "unit": "ng·h/mL"},
      {"measurement": "Cmax", "setting": "[1]; [4]", "value": "1.75 ± 0.61", "unit": "ng/mL"},
      {"measurement": "T1/2", "setting": "[1]; [4]", "value": "377.8 ± 200", "unit": "h"},
      {"measurement": "Tmax", "setting": "[1]; [4]", "value": "46.00 ± 95.07", "unit": "h"}
    ]},
    {"smiles": "NC1=Nc2ccc(Cl)c(Cl)c2CN1", "note": "[RL603, 2‐amino‐5,6‐dichloro‐3,4‐dihydroquinazolin]", "values": [
      {"measurement": "Cmax", "setting": "[2]; [5]", "value": "12.3 ± 2.85", "unit": "ng/mL"},
      {"measurement": "half-life", "setting": "[2]; [5]", "value": "0.98 ± 0.24", "unit": "h"},
      {"measurement": "AUC(0-inf)", "setting": "[2]; [6]", "value": "34.8 ± 9.94", "unit": "ng·h/mL"},
      {"measurement": "AUC(0-t)", "setting": "[2]; [6]", "value": "24.9 ± 4.29", "unit": "ng·h/mL"},
      {"measurement": "Cmax", "setting": "[2]; [6]", "value": "3.48 ± 1.01", "unit": "ng/mL"},
      {"measurement": "half-life", "setting": "[2]; [6]", "value": "13.1 ± 5.29", "unit": "h"},
      {"measurement": "plasma concentration (not detected above the quantifiable limit)", "setting": "[2]; after SC ANA 1.0 mg/kg, SD rats", "value": "< 0.2", "unit": "ng/mL"},
      {"measurement": "Tmax", "setting": "[2]; Sprague-Dawley, rat, iv, 0.5 mg/kg, analyte in plasma after single ANA dose 0.5 mg/kg IV, male SD rats, n = 3, mean ± SD", "value": "1 ± 0.87", "unit": "h"},
      {"measurement": "Tmax", "setting": "[2]; Sprague-Dawley, rat, po, 2.5 mg/kg, analyte in plasma after single ANA dose 2.5 mg/kg PO, male SD rats, n = 3, mean ± SD", "value": "1.67 ± 0.58", "unit": "h"},
      {"measurement": "AUC(0-inf)", "setting": "[1]; [7]", "value": "1530 ± 1540", "unit": "ng·h/mL"},
      {"measurement": "AUC(0-t)", "setting": "[1]; [7]", "value": "351 ± 85.7", "unit": "ng·h/mL"},
      {"measurement": "half-life", "setting": "[1]; [7]", "value": 895, "unit": "h"},
      {"measurement": "Cmax", "setting": "[1]; Sprague-Dawley, rat, analyte in plasma after single SC ANA dose 7 mg/kg, read-out: Cmax", "value": "1.08 ± 0.26", "unit": "ng/mL"},
      {"measurement": "Tmax", "setting": "[1]; Sprague-Dawley, rat, analyte in plasma after single SC ANA dose 7 mg/kg, read-out: Tmax", "value": "19.6 ± 9.84", "unit": "h"},
      {"measurement": "AUC(0-inf)", "setting": "[1]; [8]", "value": "2280 ± 1210", "unit": "ng·h/mL"},
      {"measurement": "AUC(0-t)", "setting": "[1]; [8]", "value": "925 ± 141", "unit": "ng·h/mL"},
      {"measurement": "half-life", "setting": "[1]; [8]", "value": 285, "unit": "h"},
      {"measurement": "Cmax", "setting": "[1]; Sprague-Dawley, rat, analyte in plasma after single SC ANA dose 35 mg/kg, read-out: Cmax", "value": "2.4 ± 1.28", "unit": "ng/mL"},
      {"measurement": "Tmax", "setting": "[1]; Sprague-Dawley, rat, analyte in plasma after single SC ANA dose 35 mg/kg, read-out: Tmax", "value": "92.8 ± 113", "unit": "h"}
    ]}
  ]
}
